Laboratory results taken from patent publication US20140315789A1, “ANTIMICROBIAL PEPTIDES AND USES THEREOF” (NEWSOUTH INNOVATIONS PTY LIMITED, priority 2011, published 2014).

Assays:
[1] = tested on: Pseudomonas aeruginosa PA01; experiment: Bacterial adhesion to peptide-coated glass surfaces, LIVE/DEAD fluorescence microscopy; type: cell-based; details: P. aeruginosa; for total surface coverage of bacteria / proportion of non-viable cells to total bacteria present / reduction of total surface coverage compared to BLK: peptide attached to maleimide-functionalised glass; for total surface coverage of bacteria: 48 hours incubation, BLK over 21.7%; for proportion of non-viable cells to total bacteria present: BLK 5.8%; for reduction of total surface coverage compared to BLK: versus blank glass
Experimental: (§1) Bacterial strains (Staphylococcus aureus strain 38 or Pseudomonas aeruginosa PA01) were streaked onto Chocolate agar (Oxoid, UK) and incubated overnight at 37° C. A single colony was cultured in 10 ml of tryptone soya broth (TSB) (Oxoid, UK) overnight to log phase at 37° C. Optical density of the resulting culture was adjusted to OD660 of 0.1 (corresponding to 1×10^8 cfu/ml) in TSB media (0.25% w/v glucose). Bacterial numbers were confirmed by a retrospective viable count.
(§2) Glass surfaces were placed in 4 ml of the above culture and incubated at 37° C. with shaking at 60 rpm for 24 hours, then the media was replaced with fresh TSB (4 ml) and incubated for a further 24 hours (total of 48 hours). The samples were then washed with PBS before examination by fluorescent staining
(§3) Glass samples with adherent bacteria prepared as described above were stained with LIVE/DEAD BacLight Bacterial Viability Kit (Molecular Probes, Inc., OR, USA) according to the manufacturer's directions as described by others for the analysis of biofilms at surfaces (Kirov, Barraud). Microscopic observation and image acquisition was performed with Olympus FV1000 Confocal Inverted Microscope. Images obtained from 10 representative areas on each of triplicate samples for each surface were analysed using Image software (Abramoff et al.); Biophotonics International. 2004, 11(7), pp 36-42 and Rasband et al. Image). Bethesda Md., USA, U.S. National Institutes of Health, 1997 ? 2011, available from http://imagej.hih.gov.au/ij/). The image analysis results were measured as the average area of live cells and the average area of dead cells per field of view and are reported as the average percentage coverage. Prior to comparing the groups, equality of variances was tested using Levene's test. Unequal variances were adjusted by transforming the data using square root transformation. Differences between the groups were analysed using linear mixed model ANOVA, which adjusts the correlation due to repeated observations. Post hoc multiple comparisons were done using Dunnett T3 comparison. Statistical significance was set at 5%.
(§4) The adhesion of Pseudomonas aeruginosa and Staphylococcus aureus to the modified surfaces was evaluated using fluorescence microscopy. The images obtained were analysed using ImageJ software (Abramoff et al. J. Biophotonics International. 2004, 11(7), pp 36-42 and Rasband et al. ImageJ. Bethesda Md., USA, U.S. National Institutes of Health, 1997-2011, available from http://imagej.hih.gov.au/ij/). The areas of the surfaces covered by bacteria and the relative proportions of bacteria with intact and damaged membranes for each surface were examined by image analysis and the results are shown in FIG. 4.

[2] = tested on: Staphylococcus aureus strain 38; experiment: as above; type: cell-based; details: S. aureus; for total surface coverage of bacteria / proportion of non-viable bacteria / reduction in total bacteria compared with BLK: peptide attached to maleimide-functionalised glass; for total surface coverage of bacteria: 48 hours incubation, controls more than 16%; for proportion of non-viable bacteria: BLK 2.2%; for reduction in total bacteria compared with BLK: versus blank glass
Experimental: as §1, §2, §3, §4

[3] = surface-attached, fold versus CysC

TLISWIKNKRKQCRPRVSRRRRRRGGRRRR [Cys13, melimine wherein an extra cysteine residue has been added to position 13]
total surface coverage of bacteria [1]: 7.1% | proportion of non-viable cells to total bacteria present [1]: 30.1% | reduction of total surface coverage compared to BLK [1]: 67.4% | total surface coverage of bacteria [2]: 6.3% | proportion of non-viable bacteria [2]: 9.8% | reduction in total bacteria compared with BLK [2]: 64.1%

CTLISWIKNKRKQRPRVSRRRRRRGGRRRR [CysN, melimine wherein an extra cysteine residue has been added to the N-terminus]
total surface coverage of bacteria [1]: 6.6% | proportion of non-viable cells to total bacteria present [1]: 40.6% | reduction of total surface coverage compared to BLK [1]: 69.4% | effectiveness in reducing total surface coverage relative to CysC [1, 3]: approximately 2 times | nonviable cells (stained red) relative to CysC [1, 3]: ~3 times | total surface coverage of bacteria [2]: 3.0% | proportion of non-viable bacteria [2]: 13.0% | reduction in total bacteria compared with BLK [2]: 82.7% | effectiveness in reducing total surface coverage relative to CysC [2, 3]: approximately 4 times | nonviable cells (stained red) relative to CysC [2, 3]: approximately 8 times

TLISWIKNKRKQRPRVSRRRRRRGGRRRRC [CysC, melimine wherein an extra cysteine residue has been added to the C-terminus]
total surface coverage of bacteria [1]: 11.3% | proportion of non-viable cells to total bacteria present [1]: not statistically different to the controls | reduction of total surface coverage compared to BLK [1]: 47.7% | total surface coverage of bacteria [2]: 11.8% | proportion of non-viable bacteria [2]: not different to the control
